# Test results taken from patent publication US20180282403A1, “AGENTS FOR REDUCING THE ACTIVITY OF GDF15” (GENAGON THERAPEUTICS AB, priority 2015, published 2018).
# Experiments:
# CD14+ cells = assay: Cytokine secretion by LPS-stimulated CD14+ cells (Proseek assay); assay type: cell-based; settings: LPS stimulated CD14+ cells incubated with GDF15
# Experimental: CD14+ cells where isolated and cultured in the presence or absence of GDF15 in a LPS stimulated culture.
# Buffy coat cell suspension or heparinized blood samples were diluted with sterile, room temperature PBS. Peripheral blood samples are diluted 1:1, whereas buffy coats are diluted to a final volume of 120 ml (in a standard buffy coat this will result in slightly greater dilution than 1:1). The diluted cell suspension was layered onto Ficoll Paque PLUS. For one buffy 4×15 ml aliquots are used (30 ml of diluted cell suspension/tube). Cells were centrifuged at 400×g for 30 min at room temperature and transferred to a new 50 ml tube. Cells were washed once and resuspended in 20 ml PBS.
# Mononuclear cell suspension was pelleted by centrifugation. Cells were resuspended in Stemcell buffer at a concentration of 10^8 cells/ml and transferred to a round bottom 14 ml tube. EasySep Positive Selection cocktail at was added at 100 μl/ml cells, mixed by gentle pipetting, and incubated at room temperature for 15 min. 50 μl EasySep Magnetic Nanoparticles per 1 ml cells were added and mixed, and incubated at room temperature for 10 min. Stemcell recommended medium was added to bring the cell suspension to a total volume of 5 ml and mixed by gently pipetting. The tube (without cap) was placed into the magnet and set aside for 5 min. After 5 minutes the supernatant was discarded. CD14+ labelled cells will remain inside the tube. The tube was removed from the magnet and add 5 ml Stemcell recommended medium was added and mixed by gently pipetting. The tube (without cap) was placed into the magnet and set aside for 5 min. The was step was repeated before the cells were resuspended in 5 ml complete RPMI medium. 50 μl of the CD14+ cell suspension was removed and counted to determine total cell number after dilution in Trypan blue solution and mounting on Fast Read 102 Counting Slides.
# Adjust CD14+ cell suspension volume to a concentration of 0.833×10^6 cells/ml in complete RPMI medium. 300 μl of cell suspension is added to wells in a 48 well plate well (0.25×10^6 cells per well), and allowed to adhere for 90 min in an incubator at 37° C. Non-adherent cells were removed by removal of the supernatant after gently pipetting the medium. Cells were washed once with 300 μl pre-warmed complete RPMI medium and the medium aspirated off. 300 μl pre-warmed complete RPMI medium was added to each well and the cells were incubate overnight (20-24 h) in a cell incubator at 37° C.
# A 17× stock solution of the desired GDF15 modulatory substances was diluted in complete RPMI. (20 μl of substance/well assayed). 20 μl of modulatory substance or medium/carrier (negative control) was added to each well and mixed by gentle pipetting. Cells were incubated for 30 min in a cell incubator at 37° C. A 17×GDF15 solution was prepared by diluting a 100 μg/ml stock solution to a concentration of 8.5 μg/ml (final concentration in culture 0.5 μg/ml) in complete RPMI. 20 μl of diluted GDF15 was added per well, and incubated overnight (18-20 h) in a cell incubator at 37° C.
# A 18×LPS solution was prepared by diluting the LPS stock solution to a concentration of 18 ng/ml (final concentration in culture 1 ng/ml) in complete RPMI. 20 μl of LPS or medium (negative control) was added to each well and mixed by gentle pipetting. […]
# Secreted proteins from cell cultures where quantified using multiplexed proximity extension assay, Proseek (Assarsson E et al PlosOne 2014) by Olink Proteomics AB (Uppsala Sweden). […]
# QRFPR = target: T1, QRFPR (Homo sapiens, UniProt Q96P65); assay: Western blot of QRFPR positive exosomes from conditioned medium of MCF-7 cells; assay type: cell-based; settings: MCF-7 cells exposed to GDF15 vs not exposed; FIG. 1B
# T1 construct: endogenous in cells
# T1 sequence (Q96P65 1-431): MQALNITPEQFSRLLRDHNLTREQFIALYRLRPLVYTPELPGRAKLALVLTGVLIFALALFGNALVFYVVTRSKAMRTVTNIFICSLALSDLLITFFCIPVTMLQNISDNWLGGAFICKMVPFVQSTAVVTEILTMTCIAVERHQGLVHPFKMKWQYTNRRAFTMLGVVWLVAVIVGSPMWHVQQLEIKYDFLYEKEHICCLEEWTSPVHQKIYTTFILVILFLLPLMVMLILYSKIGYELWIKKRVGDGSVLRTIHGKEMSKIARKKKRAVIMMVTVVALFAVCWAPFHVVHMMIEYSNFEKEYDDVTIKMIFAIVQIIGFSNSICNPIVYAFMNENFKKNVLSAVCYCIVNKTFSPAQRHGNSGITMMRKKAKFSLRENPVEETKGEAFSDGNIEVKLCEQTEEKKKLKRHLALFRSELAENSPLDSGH
# Experimental: Conditioned cell culture media were sequentially centrifuged for 5 min at 3,000 x g to pellet the cells and then at 10,000×g for 10 min to further remove cells and cell debris. The supernatant was then filtered through a 0.45 μm filter and then finally pelleted at 100,000×g for 2 h at 4° c. Pelleted exosomes were resuspended in PBS and protease inhibitor (complete mini, Roche) was added. The samples were then prepared for further analyses as described elsewhere.
# Material from the ultracentrifuged pellet was separated on a 12.5% SDS-PAGE gel (Biorad) at 150 v for 80 min, wet transferred to a Immobilon K membrane, blocked with 5% BSA for 1 h RT, and incubated with the corresponding QRFPR antibodies o/n at +4 with mild agitation. The membranes were washed with TBST, and the corresponding secondary antibodies, conjugated to horse radish peroxidase, were applied for 1 hr RT, the membrane washed with TBST and developed using an ECL detection reagent (FIG. 1B).
substance,measurement,setting,value
"GDF15: Growth and differentiation factor 15, from mammalian source or recombinant from E. coli (Abcam, Biovision)",LPS response secretion of IL12,CD14+ cells,reduced
same,LPS response secretion of TNF,CD14+ cells,reduced
same,QRFPR in exosomes from conditioned medium,QRFPR,higher levels of QRFPR in conditioned medium
